Experimental data taken from patent US10919935B2, “Antimicrobial peptide derived from myxinidin peptide and uses thereof” (INDUSTRY-ACADEMIC COOPERATION FOUNDATION, CHOSUN UNIVERSITY, priority 2015, dated 2021).
Residues, ends and D or L forms follow the SMILES beside them.

Columns and labels:
[1] = tested on: TNF-α, IL-6, and IL-8; test: ELISA of cytokines and chemokine in infected skin keratinocyte cells; type: cell-based, human; conditions: keratinocytes infected with S. aureus, A. baumannii or P. aeruginosa; peptide at 2 times MIC
Protocol: To specifically determine the anti-inflammatory effect of the synthetic peptide of the present invention, infection with Acinetobacter baumannii, Pseudomonas aeruginosa, or Staphylococcus aureus and a treatment with myxinidin 2 and myxinidin 3 synthetic peptides were carried out, and interleukin-6 (IL-6) and interleukin-8 (IL-8), which are a cytokine and a chemokine, and tumor necrosis factor alpha (TNF-α) were analyzed by enzyme-linked immunosorbent assay.
Specifically, interleukin-6, interleukin-8, and tumor necrosis factor-α were analyzed by a human immune assay kit. Human skin keratinocyte cells were infected with Staphylococcus aureus, Acinetobacter baumannii, or Pseudomonas aeruginosa, which are the bacterial strain having tolerance to antibiotics, followed by a treatment with the peptide at a concentration that is 2 times higher than the minimum inhibitory concentration to have a reaction. After that, only the supernatant was collected and subjected to an enzyme-linked immunosorbent assay.

[2] = tested on: Staphylococcus aureus 3018; test: Anti-microbial disk diffusion susceptibility test with gelatin; type: cell-based; conditions: 0.1% gelatin
From the text: (§1) FIGS. 4A to 4C show the results of determining the antimicrobial activity when the peptides of the present invention are admixed with gelatin used as a wound moisturizing agent. FIG. 4A: Determination of survival ratio of skin keratinocyte cells in accordance with a change in gelatin concentration; FIG. 4B: Measurement of minimum inhibitory concentration (MIC, μM) of the peptides for Staphylococcus aureus (S. aureus 3018), Acinetobacter baumannii (A. baumannii 719705), and Pseudomonas aeruginosa (P. aeruginosa 4076), in which the result is shown for different gelatin concentrations; FIG. 4C: Result of the anti-microbial disk diffusion susceptibility test carried out for Staphylococcus aureus (S. aureus 3018), Acinetobacter baumannii (A. baumannii 719705), and Pseudomonas aeruginosa (P. aeruginosa 4076), in which the result is shown for different peptide concentrations and also for the presence or absence of gelatin co-blending.
(§2) To specifically determine the antimicrobial activity at the time of mixing the synthetic peptide of the present invention with gelatin, myxinidin 2 and myxinidin 3 synthetic peptides were admixed with 0.1% gelatin. Furthermore, to determine the antimicrobial activity, a minimum inhibitory concentration measurement and an anti-microbial disk diffusion susceptibility test as an agar diffusion method were carried out for Acinetobacter baumannii, Pseudomonas aeruginosa, and Staphylococcus aureus.
(§3) Specifically, cultured Acinetobacter baumannii, Pseudomonas aeruginosa, and Staphylococcus aureus were diluted to a concentration of 2×10^5 cells/ml, admixed with a solution in which 0.1% gelatin is mixed with 1% agarose, and cultured. To see the antimicrobial activity, the peptide was applied on a 6 mm round disk, in which the peptide was applied at various different concentrations, and the diffusion level was measured.

[3] = tested on: Pseudomonas aeruginosa 4076; test: as above; type: cell-based; conditions: 0.1% gelatin
From the text: as §1, §2, §3

[4] = tested on: Acinetobacter baumannii 719705; test: as above; type: cell-based; conditions: 0.1% gelatin
From the text: as §1, §2, §3

[5] = tested on: skin wound of mouse infected with bacteria having tolerance to antibiotics; test: Healing of infected skin wound of mouse; type: in vivo, BALB/c female mouse; conditions: 5 mm biopsy punch wound, peptide at 2 times MIC, observed for 2 weeks
From the text: Healing process of skin wound of a mouse induced by the synthetic peptide of the present invention, in which the mouse has been infected with Acinetobacter baumannii, Pseudomonas aeruginosa, or Staphylococcus aureus as the bacterial strain having tolerance to antibiotics, was observed during different time periods. The animal tissue was stained by hematoxylin and eosin (H & E) staining to examine the skin tissue having inflammation.
Specifically, a wound was created in a 6 week to 7 week old BALB/c female mouse using 5 mm biopsy punch. Then, the mouse was infected with Staphylococcus aureus, Acinetobacter baumannii, or Pseudomonas aeruginosa, which are the bacterial strain having tolerance to antibiotics, followed by administration of the peptide at a concentration that is 2 times higher than the minimum inhibitory concentration.

[6] = tested on: membrane of Escherichia coli; test: Confocal microscopy analysis with PI (Propidium iodide); type: cell-based; conditions: reaction for 10 minutes
Protocol: (§4) Specifically, myxinidin 2 or myxinidin 3, which have been synthesized in the above Example 1, was treated with PI (Propidium Iodide) solution and Escherichia coli or Staphylococcus aureus followed by reaction for 10 minutes. After the reaction, only pure Escherichia coli were collected by centrifuge (4,000 rpm) followed by removal of supernatant. Then, by adding 50 μl of physiological saline (PBS), cell aggregate was removed. By using LSM510 confocal microscope, the working mechanism of the peptide on Escherichia coli and Staphylococcus aureus membrane was determined.

[7] = tested on: membrane of Staphylococcus aureus; test: as above; type: cell-based; conditions: reaction for 10 minutes
Protocol: as §4

SMILES | Expression of cytokine and chemokine (IL-6, TNF-α, IL-8; ELISA) [1] | Antimicrobial activity with gelatin (disk diffusion) [2] | Antimicrobial activity with gelatin (disk diffusion) [3] | Antimicrobial activity with gelatin (disk diffusion) [4] | Wound healing of infected mouse skin wound [5] | Activity on membrane (PI, confocal microscopy) [6] | Activity on membrane (PI, confocal microscopy) [7]
CC[C@H](C)[C@H](NC(=O)[C@H](Cc1c[nH]c2ccccc12)NC(=O)[C@H](CCCCN)NC(=O)[C@@H](NC(=O)[C@@H](N)CCCCN)[C@@H](C)CC)C(=O)N[C@@H](CC(C)C)C(=O)N[C@@H](CCCCN)C(=O)N[C@@H](Cc1ccc(O)cc1)C(=O)N[C@@H](Cc1c[nH]c2ccccc12)C(=O)N[C@@H](CCCCN)C(=O)N[C@@H](Cc1c[nH]c2ccccc12)C(=O)N[C@@H](CO)C(N)=O [Myxinidin 2, KIKWILKYWKWS-NH2] (H-KIKWILKYWKWS-NH2; N-terminus assumed) | has decreased | a similar antimicrobial activity was maintained | exhibited the antimicrobial activity | the antimicrobial activity was maintained | showed epidermalization and wound maturation | work on the membrane of Escherichia coli and Staphylococcus aureus to show PI | work on the membrane of Escherichia coli and Staphylococcus aureus to show PI
CC[C@H](C)[C@H](NC(=O)[C@H](Cc1c[nH]c2ccccc12)NC(=O)[C@H](CCCNC(=N)N)NC(=O)[C@@H](NC(=O)[C@@H](N)CCCNC(=N)N)[C@@H](C)CC)C(=O)N[C@@H](CC(C)C)C(=O)N[C@@H](CCCNC(=N)N)C(=O)N[C@@H](Cc1ccc(O)cc1)C(=O)N[C@@H](Cc1c[nH]c2ccccc12)C(=O)N[C@@H](CCCNC(=N)N)C(=O)N[C@@H](Cc1c[nH]c2ccccc12)C(=O)N[C@@H](CO)C(N)=O [Myxinidin 3, RIRWILRYWRWS-NH2] (H-RIRWILRYWRWS-NH2; N-terminus assumed) | has decreased | a similar antimicrobial activity was maintained | exhibited the antimicrobial activity | exhibited a slightly higher antimicrobial activity when the treatment is made only with the peptide | showed epidermalization and wound maturation | work on the membrane of Escherichia coli and Staphylococcus aureus to show PI | work on the membrane of Escherichia coli and Staphylococcus aureus to show PI
